# According to patent US12215354B2, “Differentiation of human embryonic stem cells into single hormonal insulin positive cells” (Janssen Biotech, Inc., priority 2011, dated 2025):
# Test system: human embryonic stem cell line H1
# Assay: Real-time PCR gene expression, timing of BMP inhibition at stage 3 (Example 3)
# Format: cell-based
# Protocol: Cells of the human embryonic stem cell line H1 at various passages (passage 40 to passage 52) were seeded as single cells at a density of 100,000 cells/cm^2 on MATRIGEL™ (1:30 dilution) coated dishes in mTesr™1 media supplemented with 10 μM of Y27632. Forty eight hours post seeding, cultures were differentiated into cells of the pancreatic endocrine lineage as follows: • a. Stage 1 (Definitive Endoderm (DE)−4 days): Prior to start of DE, the cells were washed and incubated with incomplete PBS (no Mg or Ca) for 30 seconds followed by incubation in S1 media. Human embryonic stem cells cultured as single cells on MATRIGEL™-coated dishes were treated for one day with MCDB-131 medium supplemented with 0.1% fatty acid-free BSA, 0.0012 g/ml sodium bicarbonate, 1× GLUTAMAX™, 2.5 mM D-Glucose, 100 ng/ml GDF8, 1.5 μM MCX compound (GSK3B inhibitor). Cells were then treated for […] (days 2-4) with MCDB-131 medium supplemented with 0.1% fatty acid-free BSA, 0.0012 g/ml sodium bicarbonate, 1× GLUTAMAX™, 2.5 mM glucose, and 100 ng/ml GDF8. • b. Stage 2 (Primitive gut tube−3 days): Stage 1 cells were treated for three days with MCDB-131 medium supplemented with 0.1% fatty acid-free BSA, 0.0012 g/ml sodium bicarbonate, 1× GLUTAMAX™, 2.5 mM D-Glucose, and 50 ng/ml FGF7. • c. Stage 3 (Foregut−3 days): Stage 2 cells were treated with MCDB-131 medium supplemented with a 1:200 dilution of ITS-X, 2.5 mM Glucose, 1× GLUTAMAX™, 0.0015 g/ml sodium bicarbonate, 2% fatty acid-free BSA, 0.25 μM SANT-1, 20 ng/ml of Activin-A, 2 μM RA, 50 ng/ml FGF7, 100 nM LDN-193189 (on day 1 only or for the duration of stage 3), and 200 nM TPB. In some cultures, LDN-193189 was removed from stage 3. • d. Stage 4 (Pancreatic foregut precursor-3 days): Stage 3 cells were treated with MCDB-131 medium supplemented with a 1:200 dilution of ITS-X, 2.5 mM Glucose, 1× GLUTAMAX™, 0.0015 g/ml sodium bicarbonate, 2% fatty acid-free BSA, 0.25 μM SANT-1, 100 nM TPB, 200 nM LDN-193189, 2 μM ALk5 inhibitor, and 100 nM CYP26A inhibitor for three days. • e. […]
# [1] = at stage 4, 100 nM LDN-193189 on first day of stage 3, removed at days 2-3
smiles,measurement,setting,value
c1ccc2c(-c3cnn4cc(-c5ccc(N6CCNCC6)cc5)cnc34)ccnc2c1 [LDN-193189],expression of SOX2,"at S3-S4, LDN-193189 retained for the duration of stage 3",very high expression
same,CDX2 and SOX2 expression,[1],decreasing
same,expression of NGN3 and NeuroD,[1],significantly boosted
